Active and inactive are the calls of the source. The calls are words filed in the database; no cut-off is given here.
Columns and labels:
[1] = molecular target: T1, Metallo-beta-lactamase type 2 (Klebsiella pneumoniae, UniProt C7C422); experiment: Time-dependent inhibition of wild type Klebsiella pneumoniae 6xHis-tagged metallo-beta-lactamase NDM-1 expressed in Escherichia coli BL21 (DE3)pLysS assessed as inhibition constant for initial non-covalant complex
Klebsiella pneumoniae [2] = experiment: Binding affinity to Klebsiella pneumoniae 6xHis-tagged metallo-beta-lactamase NDM-1 K224A mutant expressed in Escherichia coli BL21 (DE3)pLysS at 1.5 mM after 3 hrs by ESI-MS analysis
[3] = Inhibition of beta-lactamase VIM-2 (unknown origin)
[4] = molecular target: Metallo-beta-lactamase type 2 (Klebsiella pneumoniae) (UniProt C7C422); conditions: 2 uM
[5] = molecular target: T1, Metallo-beta-lactamase type 2; experiment: Time-dependent inhibition of wild type Klebsiella pneumoniae 6xHis-tagged metallo-beta-lactamase NDM-1 expressed in Escherichia coli BL21 (DE3)pLysS
Klebsiella pneumoniae [6] = experiment: Inhibition of Klebsiella pneumoniae 6xHis-tagged metallo-beta-lactamase NDM-1 K224A mutant expressed in Escherichia coli BL21 (DE3)pLysS assessed as hydrolysis of imipenem up to 750 uM after 20 mins
[7] = molecular target: Metallo-beta-lactamase type 2 (Klebsiella pneumoniae) (UniProt C7C422); conditions: 200 uM

Metallo-beta-lactamase type 2 (Klebsiella pneumoniae), sequence (C7C422 whole entry): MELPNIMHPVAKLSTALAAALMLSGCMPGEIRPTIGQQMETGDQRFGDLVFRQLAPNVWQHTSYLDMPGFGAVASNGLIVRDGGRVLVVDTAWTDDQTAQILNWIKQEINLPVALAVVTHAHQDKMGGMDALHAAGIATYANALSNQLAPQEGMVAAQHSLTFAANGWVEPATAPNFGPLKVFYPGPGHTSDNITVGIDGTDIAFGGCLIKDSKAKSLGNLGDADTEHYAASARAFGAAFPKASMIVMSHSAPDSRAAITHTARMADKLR
T1 sequence (C7C422 whole entry): as above

## O=Cc1coc2ccccc2c1=O
[1]
  Ki: 76 µM
Klebsiella pneumoniae [2]
  Activity: inactive
[3]
  inhibition: inactive
[4]
  inhibition: tde
[5]
  Ki: 580 nM
Klebsiella pneumoniae [6]
  inhibition: inactive
[7]
  inhibition: tde
